We go through two compounds from EP4321162A1 (priority 2022, dated 2024).

One data set concerns Calu-3 2B4 cells. The conditions noted are these: uninfected Calu-3 2B4 cells, 1-50 µM tested, 48 h.
Another data set relates to SARS-CoV-2. Set-up: species or system K18-hACE2 mice. The conditions noted are these: mouse, in vivo.

As for `Cc1ccc(NC(=O)C2(c3ccc4c(c3)OC(F)(F)O4)CC2)nc1-c1cccc(C(=O)O)c1` [VX809, 3-[6-[[1-(2,2-difluoro-1,3-benzodioxol-5-yl)cyclopropanecarbonyl]amino]-3-methylpyridin-2-yl]benzoic acid], the “cytotoxicity of the administered concentrations (cell viability, MTT)” value in the data set with Calu-3 2B4 cells is on record as “non-toxic”. The “protection levels (survival)” value in the data set on SARS-CoV-2 was found to be 20%.
The corresponding values for `CC(C)(C)c1cc(C(C)(C)C)c(NC(=O)c2c[nH]c3ccccc3c2=O)cc1O` [VX770, N-(2,4-ditert-butyl-5-hydroxyphenyl)-4-oxo-1H-quinoline-3-carboxamide] are “non-toxic” and 40%.
